The results in this text go back to patent publication US12492214B2, “Solid state forms of Risdiplam and process for preparation thereof” (ASSIA CHEMICAL INDUSTRIES LTD., priority 2019, dated 2025).

The nature of the data set: Stability of the solid form under mass pressure. Type of data set: physicochemical. The following applies: mass pressure of 1 ton for 3 minutes. The procedure: Form 3 is characterized by needle to ‘rod-like’ morphology. This morphology may be beneficial for flowability properties. In addition, Form 3 is found to be stable under mass pressure of 1 ton for 3 minutes.

In the case of `Cc1cn2nc(-c3cc(=O)n4cc(N5CCNC6(CC6)C5)ccc4n3)cc(C)c2n1` [Form 3, 7-(4,7-diazaspiro[2.5]octan-7-yl)-2-(2,8-dimethylimidazo[1,2-b]pyridazin-6-yl)-4H-pyrido[1,2-a]pyrimidin-4-one], the “stability under mass pressure” value is “stable”.
